Measured values taken from ChEMBL document CHEMBL1201862, “PubChem BioAssay data set” (2004).
Active and inactive are the calls of the source.

Experiments:
[1] = target: T1, Serine/threonine-protein kinase D3 (Homo sapiens, UniProt O94806); assay type: functional;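 note: determined within a kinase panel screen, with PRKCN as the panel member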
T1 sequence (O94806 whole entry): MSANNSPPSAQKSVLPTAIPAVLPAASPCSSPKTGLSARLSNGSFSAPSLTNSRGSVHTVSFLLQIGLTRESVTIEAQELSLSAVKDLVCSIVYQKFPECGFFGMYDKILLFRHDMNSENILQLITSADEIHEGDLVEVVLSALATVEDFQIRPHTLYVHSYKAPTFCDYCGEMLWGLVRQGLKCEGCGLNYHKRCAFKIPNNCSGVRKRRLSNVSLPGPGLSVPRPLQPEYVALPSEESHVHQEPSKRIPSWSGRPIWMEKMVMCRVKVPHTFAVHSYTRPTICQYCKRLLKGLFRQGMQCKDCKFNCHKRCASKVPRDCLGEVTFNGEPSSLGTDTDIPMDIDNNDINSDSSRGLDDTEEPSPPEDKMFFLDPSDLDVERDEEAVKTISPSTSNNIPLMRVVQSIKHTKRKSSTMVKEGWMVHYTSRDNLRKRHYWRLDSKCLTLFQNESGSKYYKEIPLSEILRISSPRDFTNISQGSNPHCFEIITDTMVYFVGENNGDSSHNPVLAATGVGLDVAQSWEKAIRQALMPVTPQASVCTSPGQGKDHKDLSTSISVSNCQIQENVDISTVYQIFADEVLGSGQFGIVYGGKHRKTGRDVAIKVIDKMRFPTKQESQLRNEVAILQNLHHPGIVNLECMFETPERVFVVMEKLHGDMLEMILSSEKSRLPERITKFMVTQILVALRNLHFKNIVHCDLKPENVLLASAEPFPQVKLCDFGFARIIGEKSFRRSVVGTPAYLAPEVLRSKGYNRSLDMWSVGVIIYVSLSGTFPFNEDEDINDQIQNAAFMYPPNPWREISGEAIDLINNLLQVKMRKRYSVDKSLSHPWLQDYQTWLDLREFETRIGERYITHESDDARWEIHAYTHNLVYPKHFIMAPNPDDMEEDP

[2] = target: Hepatocyte growth factor receptor (Homo sapiens, UniProt P08581); assay type: functional;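 note: kinase panel profiling across the kinome, with MET as the panel member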
[3] = target: T2, Sentrin-specific protease 6 (Homo sapiens, UniProt Q9GZR1); assay type: functional;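 note: Luminescence-based dose-response confirmatory assay of SENP6 inhibition, following up an ultra-high-throughput screen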
T2 sequence (Q9GZR1 whole entry): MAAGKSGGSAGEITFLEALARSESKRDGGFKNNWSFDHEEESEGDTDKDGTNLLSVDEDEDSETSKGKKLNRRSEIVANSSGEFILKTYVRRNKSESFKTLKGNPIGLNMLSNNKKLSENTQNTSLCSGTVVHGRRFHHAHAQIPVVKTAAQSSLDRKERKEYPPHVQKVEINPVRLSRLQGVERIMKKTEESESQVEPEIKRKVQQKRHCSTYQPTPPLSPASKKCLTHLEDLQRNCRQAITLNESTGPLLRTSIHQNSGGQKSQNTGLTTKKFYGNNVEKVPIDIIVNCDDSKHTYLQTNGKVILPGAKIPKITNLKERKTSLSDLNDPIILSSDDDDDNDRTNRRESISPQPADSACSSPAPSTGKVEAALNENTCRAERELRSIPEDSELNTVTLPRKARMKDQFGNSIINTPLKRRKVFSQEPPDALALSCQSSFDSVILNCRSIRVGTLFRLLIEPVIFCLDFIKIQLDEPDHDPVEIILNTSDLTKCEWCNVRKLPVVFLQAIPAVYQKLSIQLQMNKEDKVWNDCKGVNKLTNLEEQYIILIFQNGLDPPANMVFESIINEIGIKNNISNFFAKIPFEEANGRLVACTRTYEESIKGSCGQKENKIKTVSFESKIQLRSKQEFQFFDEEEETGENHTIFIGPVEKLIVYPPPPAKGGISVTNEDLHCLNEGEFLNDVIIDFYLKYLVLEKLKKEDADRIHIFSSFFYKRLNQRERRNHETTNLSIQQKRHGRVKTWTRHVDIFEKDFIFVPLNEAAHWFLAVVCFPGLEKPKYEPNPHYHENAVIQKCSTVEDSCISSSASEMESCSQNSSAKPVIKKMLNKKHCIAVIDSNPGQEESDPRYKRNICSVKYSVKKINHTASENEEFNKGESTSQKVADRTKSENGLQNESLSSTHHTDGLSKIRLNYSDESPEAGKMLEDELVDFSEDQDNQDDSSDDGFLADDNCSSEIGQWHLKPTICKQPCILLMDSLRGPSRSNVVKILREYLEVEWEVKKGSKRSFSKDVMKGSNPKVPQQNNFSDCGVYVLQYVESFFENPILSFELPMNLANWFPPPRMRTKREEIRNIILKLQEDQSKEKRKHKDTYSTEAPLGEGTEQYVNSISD

[4] = Luminescence Cell-Based Dose Confirmation HTS to Identify Activators of 5'UTR Stem-Loop Driven Alpha-Synuclein mRNA Translation in H4 Neuroglioblastoma Cells. [Related pubchem assays: 1829 (Project Summary), 1814 (Primary HTS)]; assay type: functional
[5] = target: Voltage-dependent T-type calcium channel subunit alpha-1H (Homo sapiens, UniProt O95180); assay type: functional;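 note: channel activity triggered by adding a high calcium stimulation buffer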
H4 = assay: Luminescence Cell-Based Dose Response HTS to Identify Activators of 5'UTR Stem-Loop Driven Prion Protein mRNA Translation in H4 Neuroglioblastoma Cells. [Related pubchem assays: 1829 (Project Summary), 1814 (Primary HTS)]; assay type: functional; conditions: Homo sapiens
[6] = target: T3, Sentrin-specific protease 8 (Homo sapiens, UniProt Q96LD8); assay type: functional;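 note: luminescence read-out of SENP8 inhibition, dose-response confirmation following an ultra-high-throughput screen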
T3 sequence (Q96LD8 whole entry): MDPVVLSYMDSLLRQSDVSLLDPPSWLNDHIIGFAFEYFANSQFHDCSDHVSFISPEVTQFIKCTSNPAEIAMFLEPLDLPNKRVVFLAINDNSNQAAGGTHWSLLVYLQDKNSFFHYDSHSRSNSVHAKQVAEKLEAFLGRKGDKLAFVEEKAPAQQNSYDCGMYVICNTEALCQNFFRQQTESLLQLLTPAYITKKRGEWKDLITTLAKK

[7] = Luminescence Cell-Based Dose Response HTS to Identify Activators of Luciferase Translation or Activity in H4 […] Cells. [Related pubchem assays: 1829 (Project Summary), 1814 (Primary HTS)]; assay type: functional
Caspase-3 = target: T4, Caspase-3 (Homo sapiens, UniProt P42574); assay type: functional;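 note: Dose-response selectivity test against caspase-3 for candidate inhibitors of sentrin-specific proteases (SENPs)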
T4 sequence (P42574 whole entry): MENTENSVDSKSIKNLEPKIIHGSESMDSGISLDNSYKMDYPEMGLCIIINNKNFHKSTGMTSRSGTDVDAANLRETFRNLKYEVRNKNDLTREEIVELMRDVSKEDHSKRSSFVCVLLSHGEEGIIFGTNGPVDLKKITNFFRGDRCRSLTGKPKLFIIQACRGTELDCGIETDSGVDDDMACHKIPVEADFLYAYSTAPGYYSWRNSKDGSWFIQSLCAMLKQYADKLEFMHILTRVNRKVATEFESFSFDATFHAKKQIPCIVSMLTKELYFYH

[8] = target: T5, Sentrin-specific protease 7 (Homo sapiens, UniProt Q9BQF6); assay type: functional;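 note: Luminescence-based dose-response confirmation of ultra-high-throughput screening hits, measuring inhibition of SENP7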
T5 sequence (Q9BQF6 whole entry): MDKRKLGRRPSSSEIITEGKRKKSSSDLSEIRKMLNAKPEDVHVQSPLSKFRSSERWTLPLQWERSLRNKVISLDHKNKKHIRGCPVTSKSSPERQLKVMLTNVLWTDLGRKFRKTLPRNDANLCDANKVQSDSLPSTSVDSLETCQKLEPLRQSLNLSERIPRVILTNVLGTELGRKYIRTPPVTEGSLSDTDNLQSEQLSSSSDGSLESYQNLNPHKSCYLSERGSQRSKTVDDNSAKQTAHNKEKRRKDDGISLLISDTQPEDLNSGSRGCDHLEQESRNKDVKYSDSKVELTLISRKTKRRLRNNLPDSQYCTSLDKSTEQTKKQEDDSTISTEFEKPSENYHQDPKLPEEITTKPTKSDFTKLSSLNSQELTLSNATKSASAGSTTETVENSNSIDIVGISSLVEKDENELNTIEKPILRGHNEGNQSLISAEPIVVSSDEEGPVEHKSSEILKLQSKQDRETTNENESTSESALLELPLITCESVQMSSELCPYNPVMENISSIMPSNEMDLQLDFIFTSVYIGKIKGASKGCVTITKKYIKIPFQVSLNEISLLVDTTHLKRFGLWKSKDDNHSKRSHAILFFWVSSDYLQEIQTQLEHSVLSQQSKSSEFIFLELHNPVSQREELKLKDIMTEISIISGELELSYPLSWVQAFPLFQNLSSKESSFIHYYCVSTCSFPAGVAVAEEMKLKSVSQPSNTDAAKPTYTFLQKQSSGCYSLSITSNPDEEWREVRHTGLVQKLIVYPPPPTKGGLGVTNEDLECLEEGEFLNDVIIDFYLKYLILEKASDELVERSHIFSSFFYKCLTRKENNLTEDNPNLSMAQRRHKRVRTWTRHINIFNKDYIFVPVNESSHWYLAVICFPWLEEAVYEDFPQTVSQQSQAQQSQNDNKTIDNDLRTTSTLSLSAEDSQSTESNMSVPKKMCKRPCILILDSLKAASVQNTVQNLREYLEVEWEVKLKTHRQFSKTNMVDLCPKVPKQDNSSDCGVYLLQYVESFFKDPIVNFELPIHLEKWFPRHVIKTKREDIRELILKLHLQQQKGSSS

HEK293 = assay: cells; assay type: functional, cell-based; conditions: Homo sapiens
[9] = target: T6, Nuclear receptor subfamily 0 group B member 1 (Homo sapiens, UniProt P51843); assay: Luminescence-based cell-based high throughput dose response assay for inhibitors of the orphan nuclear receptor subfamily 0, group B, member 1 (DAX1; NR0B1). [Related pubchem assays (depositor defined):AID504766, AID504790]; assay type: functional
T6 sequence (P51843 whole entry): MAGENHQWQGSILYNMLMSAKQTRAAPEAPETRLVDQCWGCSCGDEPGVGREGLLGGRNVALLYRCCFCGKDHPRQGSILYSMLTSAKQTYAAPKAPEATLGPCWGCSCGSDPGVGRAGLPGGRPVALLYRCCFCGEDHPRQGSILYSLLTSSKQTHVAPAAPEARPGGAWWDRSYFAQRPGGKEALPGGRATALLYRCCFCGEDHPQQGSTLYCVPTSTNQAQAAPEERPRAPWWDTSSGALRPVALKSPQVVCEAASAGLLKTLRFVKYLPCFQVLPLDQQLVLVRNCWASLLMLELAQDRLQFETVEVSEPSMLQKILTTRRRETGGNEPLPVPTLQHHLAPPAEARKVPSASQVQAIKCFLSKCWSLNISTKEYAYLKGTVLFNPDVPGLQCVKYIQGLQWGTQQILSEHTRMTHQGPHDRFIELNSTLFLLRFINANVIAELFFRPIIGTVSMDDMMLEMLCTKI

[10] = DRD fibroblast viability loss – cell-based, non-viral oncogenic, luminescence, dose response (AID 1934); assay type: functional; conditions: Homo sapiens
BJ [11] = assay: BJ-TERT fibroblast viability loss – cell-based, RAS-independent, luminescence, dose response (AID 1933); assay type: functional; conditions: Homo sapiens
BJ [12] = assay: growth inhibition of engineered Ras-driven BJ cells – cell-based, alamar blue fluorescence, cherrypicked samples, dose response (AID 2631); assay type: functional; conditions: Homo sapiens;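 note: confirmatory dose-response assay in RAS-dependent BJ fibroblasts engineered with TERT, LT and ST, with cytotoxicity read by fluorescence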
[13] = luciferase reporter signal suppression in cells – H4 neuroglioma cells, luminescence, dose response (AID 1990); assay type: functional, cell-based
[14] = Luminescence Cell-Based Dose Response HTS to Identify Inhibitors of 5'UTR Stem-Loop Driven Prion Protein mRNA Translation in H4 Neuroglioblastoma Cells. [Related pubchem assays: 1827 (Project Summary), 1813 (Primary HTS)]; assay type: functional
BJ [15] = assay: BJ-TERT-LT-ST fibroblast viability loss – cell-based, RAS-independent, luminescence, dose response (AID 1935); assay type: functional; conditions: Homo sapiens;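 note: BJ fibroblasts immortalized with TERT plus LT and ST oncogenes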
BJ [16] = assay: cells; assay type: functional, cell-based; conditions: Homo sapiens
[17] = alpha-synuclein stem-loop luciferase translation blockers – H4 neuroglioma cells, luminescence, confirmation (AID 1988); assay type: functional, cell-based
[18] = target: Voltage-gated inwardly rectifying potassium channel KCNH2 (Homo sapiens, UniProt Q12809); conditions: Potency;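 note: confirmatory quantitative high-throughput screen measuring inhibition of hERG channel activity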
[19] = target: DNA dC->dU-editing enzyme APOBEC-3A (Homo sapiens, UniProt P31941); assay: Dose Response confirmation of small molecule APOBEC3A DNA Deaminase Inhibitors via a fluorescence-based single-stranded DNA deaminase assay. [Related pubchem assays (depositor defined):AID493011, AID493024]; assay type: functional
[20] = target: DNA dC->dU-editing enzyme APOBEC-3G (Homo sapiens, UniProt Q9HC16); assay type: functional;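 note: Dose-response counterscreen measuring inhibition of APOBEC3G DNA deaminase activity, run while confirming APOBEC3A inhibitors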
[21] = target: DNA (cytosine-5)-methyltransferase 1 (Homo sapiens, UniProt P26358); assay: inhibition of DNA methylation by DNMT1 – biochemical, fluorescent molecular beacon, confirmation (AID 602386); assay type: functional
[22] = target: T7, Carboxy-terminal domain RNA polymerase II polypeptide A small phosphatase 1 (Homo sapiens, UniProt Q9GZU7); assay: CTDSP1 inhibitors, concentration-response, biochemical, absorbance readout, ultra-high-throughput screen actives (AID 540297); assay type: functional
T7 sequence (Q9GZU7 whole entry): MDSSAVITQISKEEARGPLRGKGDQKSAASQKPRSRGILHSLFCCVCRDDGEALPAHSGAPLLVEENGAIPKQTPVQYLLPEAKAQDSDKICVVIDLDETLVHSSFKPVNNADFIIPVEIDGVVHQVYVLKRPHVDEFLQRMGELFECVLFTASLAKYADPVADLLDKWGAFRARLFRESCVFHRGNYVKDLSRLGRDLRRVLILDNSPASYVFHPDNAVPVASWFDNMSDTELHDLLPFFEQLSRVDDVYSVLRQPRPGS

DNA dC->dU-editing enzyme APOBEC-3A, sequence (P31941 whole entry): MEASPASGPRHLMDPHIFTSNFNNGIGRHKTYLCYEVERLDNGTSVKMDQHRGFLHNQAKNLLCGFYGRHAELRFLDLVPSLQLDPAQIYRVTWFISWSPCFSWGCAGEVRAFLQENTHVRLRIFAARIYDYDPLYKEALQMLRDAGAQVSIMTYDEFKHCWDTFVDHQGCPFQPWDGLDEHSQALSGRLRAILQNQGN
Hepatocyte growth factor receptor, sequence (P08581 whole entry): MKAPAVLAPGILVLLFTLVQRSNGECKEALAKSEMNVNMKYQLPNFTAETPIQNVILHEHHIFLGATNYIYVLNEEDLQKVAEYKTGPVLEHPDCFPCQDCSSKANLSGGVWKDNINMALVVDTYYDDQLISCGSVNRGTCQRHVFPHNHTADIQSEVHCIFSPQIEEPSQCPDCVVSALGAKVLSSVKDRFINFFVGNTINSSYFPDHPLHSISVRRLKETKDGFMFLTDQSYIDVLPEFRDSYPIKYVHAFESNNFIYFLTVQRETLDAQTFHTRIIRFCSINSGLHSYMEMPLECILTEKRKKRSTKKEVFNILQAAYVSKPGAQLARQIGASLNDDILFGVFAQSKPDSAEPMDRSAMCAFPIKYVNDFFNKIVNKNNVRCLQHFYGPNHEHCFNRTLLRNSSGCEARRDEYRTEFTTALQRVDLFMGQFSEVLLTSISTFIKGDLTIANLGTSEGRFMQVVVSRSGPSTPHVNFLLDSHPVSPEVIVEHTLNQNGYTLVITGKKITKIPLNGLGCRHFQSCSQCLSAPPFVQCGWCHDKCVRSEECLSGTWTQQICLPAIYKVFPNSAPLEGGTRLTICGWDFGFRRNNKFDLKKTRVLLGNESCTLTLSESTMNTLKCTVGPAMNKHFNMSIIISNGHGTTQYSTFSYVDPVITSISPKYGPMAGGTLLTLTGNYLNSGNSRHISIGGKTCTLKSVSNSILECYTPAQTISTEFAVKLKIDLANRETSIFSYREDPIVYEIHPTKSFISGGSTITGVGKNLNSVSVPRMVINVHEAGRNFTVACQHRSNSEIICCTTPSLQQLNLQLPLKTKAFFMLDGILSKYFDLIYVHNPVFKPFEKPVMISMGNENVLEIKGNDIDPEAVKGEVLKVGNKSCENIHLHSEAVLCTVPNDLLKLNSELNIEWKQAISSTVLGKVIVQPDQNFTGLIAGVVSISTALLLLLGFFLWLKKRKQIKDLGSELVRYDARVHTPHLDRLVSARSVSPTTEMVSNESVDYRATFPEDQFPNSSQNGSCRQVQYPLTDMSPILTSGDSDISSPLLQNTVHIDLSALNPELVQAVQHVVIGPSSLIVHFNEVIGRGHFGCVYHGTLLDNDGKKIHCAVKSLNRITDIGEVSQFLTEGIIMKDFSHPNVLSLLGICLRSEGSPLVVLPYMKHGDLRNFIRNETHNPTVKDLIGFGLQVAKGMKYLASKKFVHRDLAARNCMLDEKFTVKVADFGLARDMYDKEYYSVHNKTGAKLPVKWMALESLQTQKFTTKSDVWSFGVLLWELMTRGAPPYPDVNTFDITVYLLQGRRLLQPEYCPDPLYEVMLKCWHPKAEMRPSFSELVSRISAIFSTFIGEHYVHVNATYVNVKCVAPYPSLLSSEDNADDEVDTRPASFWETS
DNA (cytosine-5)-methyltransferase 1, sequence (P26358 whole entry, the tested form may be a part): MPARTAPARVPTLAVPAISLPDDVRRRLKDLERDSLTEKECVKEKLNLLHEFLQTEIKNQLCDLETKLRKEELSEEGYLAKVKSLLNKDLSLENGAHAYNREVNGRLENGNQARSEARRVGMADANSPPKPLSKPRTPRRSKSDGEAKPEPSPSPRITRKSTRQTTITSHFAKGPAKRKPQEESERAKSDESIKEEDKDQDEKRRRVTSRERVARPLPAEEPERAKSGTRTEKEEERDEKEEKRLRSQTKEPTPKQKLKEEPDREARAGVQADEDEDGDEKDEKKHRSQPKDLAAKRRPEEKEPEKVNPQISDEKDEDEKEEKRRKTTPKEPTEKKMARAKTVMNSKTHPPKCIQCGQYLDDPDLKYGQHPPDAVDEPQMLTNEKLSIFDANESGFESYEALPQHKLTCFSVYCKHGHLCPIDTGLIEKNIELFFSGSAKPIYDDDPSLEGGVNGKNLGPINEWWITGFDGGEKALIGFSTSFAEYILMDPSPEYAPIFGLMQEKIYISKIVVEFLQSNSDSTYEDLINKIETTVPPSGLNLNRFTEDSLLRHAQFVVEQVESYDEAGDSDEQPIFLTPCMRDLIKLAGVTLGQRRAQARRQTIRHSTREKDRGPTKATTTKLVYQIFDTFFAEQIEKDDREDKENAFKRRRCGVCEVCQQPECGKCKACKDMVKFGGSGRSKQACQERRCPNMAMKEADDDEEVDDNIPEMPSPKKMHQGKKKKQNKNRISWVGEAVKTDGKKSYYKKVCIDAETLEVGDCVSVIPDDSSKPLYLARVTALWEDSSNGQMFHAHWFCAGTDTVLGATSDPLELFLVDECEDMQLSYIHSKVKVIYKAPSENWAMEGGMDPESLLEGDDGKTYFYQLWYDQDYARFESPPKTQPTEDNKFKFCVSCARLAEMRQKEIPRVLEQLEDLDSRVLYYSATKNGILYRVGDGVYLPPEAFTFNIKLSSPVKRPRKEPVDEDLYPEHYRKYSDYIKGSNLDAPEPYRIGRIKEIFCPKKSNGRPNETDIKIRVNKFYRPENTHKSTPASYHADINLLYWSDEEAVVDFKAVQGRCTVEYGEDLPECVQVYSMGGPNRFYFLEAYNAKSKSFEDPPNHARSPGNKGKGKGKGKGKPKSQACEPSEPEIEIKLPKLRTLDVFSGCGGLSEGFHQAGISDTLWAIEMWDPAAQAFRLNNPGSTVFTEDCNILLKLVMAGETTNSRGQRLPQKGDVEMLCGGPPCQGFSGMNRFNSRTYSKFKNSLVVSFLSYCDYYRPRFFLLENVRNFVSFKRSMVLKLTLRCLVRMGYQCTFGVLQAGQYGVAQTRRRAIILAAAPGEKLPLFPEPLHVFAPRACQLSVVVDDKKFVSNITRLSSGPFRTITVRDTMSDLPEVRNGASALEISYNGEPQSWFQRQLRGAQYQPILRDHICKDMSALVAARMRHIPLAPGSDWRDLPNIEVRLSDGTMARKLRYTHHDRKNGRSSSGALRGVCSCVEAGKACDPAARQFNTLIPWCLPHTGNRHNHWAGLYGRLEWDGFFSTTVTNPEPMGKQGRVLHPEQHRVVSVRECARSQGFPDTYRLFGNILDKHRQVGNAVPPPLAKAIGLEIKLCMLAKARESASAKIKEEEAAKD
Voltage-gated inwardly rectifying potassium channel KCNH2, sequence (Q12809 whole entry): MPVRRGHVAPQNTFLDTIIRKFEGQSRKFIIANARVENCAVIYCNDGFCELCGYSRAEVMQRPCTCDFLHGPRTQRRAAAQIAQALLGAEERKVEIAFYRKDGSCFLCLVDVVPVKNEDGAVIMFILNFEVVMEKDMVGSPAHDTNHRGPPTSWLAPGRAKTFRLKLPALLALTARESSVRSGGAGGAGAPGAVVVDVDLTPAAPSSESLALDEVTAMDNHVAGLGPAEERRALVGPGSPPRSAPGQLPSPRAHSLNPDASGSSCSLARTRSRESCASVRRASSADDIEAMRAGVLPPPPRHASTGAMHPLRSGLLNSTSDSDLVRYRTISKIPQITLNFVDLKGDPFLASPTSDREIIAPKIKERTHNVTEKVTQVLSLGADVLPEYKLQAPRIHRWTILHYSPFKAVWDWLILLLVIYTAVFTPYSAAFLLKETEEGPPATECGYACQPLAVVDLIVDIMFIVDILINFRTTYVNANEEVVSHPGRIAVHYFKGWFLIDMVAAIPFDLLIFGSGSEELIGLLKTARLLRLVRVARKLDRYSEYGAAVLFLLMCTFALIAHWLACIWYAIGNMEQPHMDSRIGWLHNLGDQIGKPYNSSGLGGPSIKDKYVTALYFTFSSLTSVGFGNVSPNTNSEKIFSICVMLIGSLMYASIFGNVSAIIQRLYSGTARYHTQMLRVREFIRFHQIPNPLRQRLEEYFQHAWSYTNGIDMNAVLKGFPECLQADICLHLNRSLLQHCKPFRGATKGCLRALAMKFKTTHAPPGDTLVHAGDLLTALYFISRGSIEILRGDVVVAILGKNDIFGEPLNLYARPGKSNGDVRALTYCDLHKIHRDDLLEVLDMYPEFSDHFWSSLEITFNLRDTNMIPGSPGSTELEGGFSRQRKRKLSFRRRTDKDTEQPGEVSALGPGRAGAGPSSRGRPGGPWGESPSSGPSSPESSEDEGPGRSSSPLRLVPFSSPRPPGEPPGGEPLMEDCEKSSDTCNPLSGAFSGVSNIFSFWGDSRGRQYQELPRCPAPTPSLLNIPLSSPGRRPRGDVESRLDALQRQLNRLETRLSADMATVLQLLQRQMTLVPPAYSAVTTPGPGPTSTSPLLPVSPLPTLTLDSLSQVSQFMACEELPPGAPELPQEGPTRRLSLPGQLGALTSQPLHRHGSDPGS
DNA dC->dU-editing enzyme APOBEC-3G, sequence (Q9HC16 whole entry): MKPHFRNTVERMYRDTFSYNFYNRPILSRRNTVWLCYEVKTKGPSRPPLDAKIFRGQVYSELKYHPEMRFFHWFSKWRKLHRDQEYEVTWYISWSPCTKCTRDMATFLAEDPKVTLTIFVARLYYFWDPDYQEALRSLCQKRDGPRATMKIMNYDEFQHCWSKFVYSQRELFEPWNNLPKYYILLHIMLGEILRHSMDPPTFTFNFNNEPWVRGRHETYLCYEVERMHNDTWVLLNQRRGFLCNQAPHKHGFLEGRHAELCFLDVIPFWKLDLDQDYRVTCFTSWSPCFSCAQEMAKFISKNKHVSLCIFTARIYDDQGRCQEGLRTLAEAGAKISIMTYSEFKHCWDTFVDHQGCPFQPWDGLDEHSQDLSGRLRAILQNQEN

## CCCC(=O)Nc1cccc(-c2nc(Nc3ccc4[nH]ncc4c3)c3cc(OCCOC)ccc3n2)c1
[1]
  Ki: 1.26 µM (active)
[2]
  Ki: 2.51 µM (active)

## Cc1nnc(SCCC(=O)Nc2nc(-c3ccccc3)ns2)s1
[3]
  IC50: 21.9 µM (active)
[4]
  EC50: > 120 µM (not active)
[5]
  EC50: 2.54 µM (active)
H4
  EC50: 8.61 µM (active)
[6]
  IC50: 24.1 µM (active)
[7]
  EC50: 15 µM (active)
Caspase-3
  IC50: 44.1 µM (active)
[8]
  IC50: 13.1 µM (active)

## O=C(CN1C(=O)NC2(CCCC2)C1=O)Nc1ccc(OC(F)(F)F)cc1
HEK293
  IC50: > 67.5 µM (inactive)
[9]
  IC50: > 67.5 µM (inactive)

## CCCc1cc(O)nc(SCC(=O)c2c(N)n(CC(C)C)c(=O)n(C)c2=O)n1
[10]
  EC50: 10.7 µM (active)
BJ [11]
  EC50: > 150 µM (not active)
BJ [12]
  EC50: > 133 µM (inactive)
[13]
  EC50: 9.13 µM (active)
[14]
  EC50: 18.1 µM (active)
BJ [15]
  EC50: > 150 µM (not active)
BJ [16]
  EC50: 9.97 µM (inconclusive)
[17]
  EC50: 12.1 µM (active)

## NC(=S)NCCCC(N)C(=O)O (configuration not stated)
[18]
  AC50: 35.5 µM (inconclusive)

## O=CNC(n1cnc2c(N3CCOCC3)ncnc21)C(Cl)(Cl)Cl (configuration not stated)
HEK293
  IC50: > 67.5 µM (inactive)
[9]
  IC50: > 67.5 µM (inactive)

## O=C(COC(=O)c1cc2c(s1)CCC2)Nc1ccc(F)cc1
[19]
  IC50: 19.6 µM (active)
[20]
  IC50: 34.6 µM (active)
[21]
  IC50: 10.3 µM (active)
[22]
  IC50: 4.34 µM (active)
